Data: ChEMBL document CHEMBL3399996, “Marine natural products as inhibitors of cystathionine beta-synthase activity” (Bioorg Med Chem Lett, 2015)

target: T1, Cystathionine beta-synthase (Homo sapiens, UniProt P35520); assay: Inhibition of full-length wild-type cystathionine beta-synthase (unknown origin) assessed as inhibition of H2S production by fluorescence assay in presence of S-adenosylmethionine
T1 sequence (P35520 whole entry): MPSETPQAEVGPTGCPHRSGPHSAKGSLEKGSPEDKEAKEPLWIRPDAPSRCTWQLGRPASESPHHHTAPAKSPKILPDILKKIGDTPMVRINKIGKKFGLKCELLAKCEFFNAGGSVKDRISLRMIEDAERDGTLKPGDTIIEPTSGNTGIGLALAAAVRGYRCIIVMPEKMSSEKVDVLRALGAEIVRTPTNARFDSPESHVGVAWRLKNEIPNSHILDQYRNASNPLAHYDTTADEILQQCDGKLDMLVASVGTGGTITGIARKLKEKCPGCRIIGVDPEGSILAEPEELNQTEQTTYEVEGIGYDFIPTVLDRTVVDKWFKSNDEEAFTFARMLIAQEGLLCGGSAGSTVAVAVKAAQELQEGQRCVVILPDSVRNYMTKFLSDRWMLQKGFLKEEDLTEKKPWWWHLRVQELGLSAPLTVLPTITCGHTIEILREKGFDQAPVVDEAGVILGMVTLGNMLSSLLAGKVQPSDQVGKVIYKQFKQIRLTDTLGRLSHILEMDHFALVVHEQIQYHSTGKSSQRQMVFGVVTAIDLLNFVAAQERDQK

IC50	Structure (SMILES)
108 µM	O=C1C=C(c2cc(Br)c(O)c(Br)c2)/C(=C/c2cc(Br)c(O)c(Br)c2)O1 [RUBROLIDE A]
125 µM	O=C1NC(=S)N/C1=C\c1ccc(O)c(O)c1
83 µM	COc1cc(/C=C2\NC(=S)NC2=O)ccc1OC(C)=O
136 µM	C[C@@]12CCC(=O)c3coc(c31)C(=O)c1cc3cccc(OS(=O)(=O)O)c3cc12
170 µM	O=C1NC(=S)N/C1=C\c1ccccc1
156 µM	NC(=O)c1cc(Br)c(Br)[nH]1
187 µM	COc1cc(/C=C2\NC(=S)NC2=O)ccc1O
87 µM	COc1cc(/C=C2\N=C(SC)N(C)C2=O)ccc1O
